Test: Solubility observation on acid addition
Format: physicochemical
Settings: addition of an acid such as hydrochloric acid to reduce the pH of the product
Protocol: The 518B562 compound was prepared by mixing together particulate harmaline and vanillin at a weight ratio of about 2:1 (vanillin:harmaline), followed by adding ethanol to a final concentration of the reactions of from about 10-100 mg/mL. This mixture is then allowed to sit for approximately 3 days at 50° C. A bluish solid forms, which is filtered and washed with methanol, and recovered.

## COc1ccc2c3c([nH]c2c1)C(CC(CC1=NCCc2c1[nH]c1cc(OC)ccc21)c1ccc(O)c(OC)c1)=NCC3 [compound 562]
  solubility: increased the solubility thereof
